According to patent US11806343B2, “Inhibitors of DUX4 induction for regulation of muscle function” (Sonic Master Limited, priority 2017, dated 2023):

Legend:
Type in all cases: cell-based, human
[1] = test system: 17MB026 primary FSHD-affected patient myotubes; assay: FSHD primary patient biopsy myotube immunocytochemistry, Myosin Heavy Chain and nuclei; conditions: 17MB026 primary myotubes, 2 nM-5 μM, 2.5 days
Method: FIG. 10 provides the workflow for assays performed with patient biopsy-derived muscle. On Day 0, patient myoblasts are passaged in a 96-well dish in primary myoblast medium (Genea BioCells). On Day 2, the medium is changed to […].
17MB026 primary FSHD-affected patient myoblasts (obtained from the University of Rochester FSHD Biorepository) were thawed and cultured as described in Rickard et al., 2015 in primary myoblast medium. Cells (6000 per well) were seeded to a collagen-I coated 96-well plate in 100 μl primary myoblast medium. Medium was changed every other day until cells reached 80% confluence followed by a switch to 100 μL per well primary myotube medium. […] Cells were fixed and analyzed after 2.5 days of myotube formation by immunocytochemistry and high-content imaging for DUX4, H3.X/Y, Myosin Heavy Chain expression and nuclei number. Five or six replicate wells were averaged per condition, […]

PRKDC = assay: RT-PCR of PRKDC mRNA in patient biopsy-derived primary myotubes; conditions: 10 nM-1 μM, 2.5 days, vs vehicle
Method: (§1) Patient biopsy-derived primary myoblasts were seeded to a collagen-I coated plate in primary myoblast medium. Medium was changed every other day until cells reached 80% confluence followed by a switch to primary myotube medium. […] After 2.5 days of myotube formation, the cells were lysed with buffer RLT followed by RNA isolation with RNeasy Plus Mini Kit (Qiagen). 500 ng of RNA was used for cDNA synthesis with SuperScript III first-strand synthesis system for RT-PCR (Invitrogen) and both random hexamers and oligo(dT)20 primers. RT-PCR was performed using TaqMan™ Fast Advanced Master Mix (Applied Biosystems). Reactions were analyzed upon a QuantStudio 3 Real-Time PCR machine using the following cycle conditions: 50° C. for 2 minutes, 95° C. for 2 minutes, followed by 40 cycles at 95° C. for 15 seconds, 60° C. for 1 minute, Results were normalized against GAPDH expression.

SRC [2] = assay: Immunofluorescence of nuclear phosphorylated SRC^416 in primary myocytes; conditions: 100 nM or 500 nM, 1 hour
Method: Patient biopsy-derived primary myoblasts were seeded to a collagen-I coated plate in primary myoblast medium. Medium was changed every other day until cells reached 80% confluence followed by a switch to primary myotube medium. […] PRKDC (phosphorylated PRKDC^2609), active SRC (phosphorylated SRC^416), and nuclei.

myotube marker genes = assay: Nanostring panel transcript analysis, myogenic genes; conditions: 17MB026 primary myotubes, 30 nM-3 μM, 3 days
Method: 17MB026 primary FSHD-affected patient myoblasts (obtained from the University of Rochester FSHD Biorepository) were thawed and cultured as described in Rickard et al., 2015 in primary myoblast medium. Cells (4000 per well) were seeded to a collagen-I coated 96-well plate in 100 μL primary myoblast medium. Medium was changed every other day until cells reached 80% confluence followed by a switch to 100 μL per well primary myotube medium. […] Cells were lysed after 3 days of myotube formation using 10 μL of iScript Buffer (Biorad) per well. The resulting lysates were frozen at −30° C. After thaw, 5 μL of each lysate was combined with a custom-designed Nanostring transcript probe and capture codeset. Probes were hybridized to lysates and run cartridge was loaded and run per standard protocol. Normalization and background subtraction were performed using the nSolver 3.0 software using standard conditions DUX4 target gene and myotube marker gene expression values were normalized to a standard set of housekeeping genes. Duplicate wells of each condition were averaged.

[3] = test system: 17MB026 primary FSHD-affected patient myotubes; assay: Live cell imaging of % cell confluence through myotube formation; conditions: 17MB026 primary myotubes, six concentrations, four days of myotube formation
Method: 17MB026 primary FSHD-affected patient myoblasts (obtained from the University of Rochester FSHD Biorepository) were thawed and cultured as described in Rickard et al., 2015 in primary myoblast medium. Cells (4000 per well) were seeded to a collagen-I coated 96-well plate in 100 μL primary myoblast medium. Medium was changed every other day until cells reached 80% confluence followed by a switch to 100 μL per well primary myotube medium. […] Cells were imaged in the phase contrast channel every six hours for four days and cell confluence in each image was quantified, Triplicate wells of each condition were averaged.

DUX4 = assay: FSHD hESC-SkM immunocytochemistry, DUX4 expression
Method: FIG. 6 provides an example of a screening and culturing workflow for hESC-SkM assays. At Day 0, hESC-derived myoblasts are thawed into a 96-well plate in myoblast medium (Genea BioCells). On Day 2, the medium is replaced with new myoblast medium containing 1.15 μM. Decitabine. […] On Day 7, the myotubes are analyzed. For example, the myotubes may be analyzed for MHC expression or DUX4 expression.
(§2) Genea049 FSHD-affected human Embryonic Stem Cells (hESCs) were differentiated using Genea's myogenic differentiation protocol (Caron et 2015) to the myoblast stage and cryopreserved. Frozen myoblasts were resuscitated and 4500 cells were plated into each well of a 96-well collagen I coated tissue culture plate in myoblast medium. After two days of cell growth medium was changed to 100 μL per well myoblast medium containing 1.15 μM Decitabine. […] Cells were allowed to differentiate to myotubes for four additional days then were fixed and analyzed for quantification of DUX4 expression, Myosin Heavy Chain expression, and nuclei number. Triplicate wells of each condition were averaged.
as §2, with “et al.,” for “et”, “number by high-content imaging.” for “number.”

SRC [4] = assay: RT-PCR of SRC mRNA in patient biopsy-derived primary myotubes; conditions: 10 nM-1 μM, 2.5 days, vs vehicle
Method: as §1

CNC(=O)c1cc(Oc2ccc(NC(=O)Nc3cc(C(C)(C)C)nn3-c3ccc4ncccc4c3)c(F)c2)ccn1 [GBC0905, Rebastinib]
Myosin Heavy Chain and nuclei count [1]: without reducing Myosin Heavy Chain or nuclei count
expression levels of PRKDC (mRNA) (PRKDC): No significant difference
intensity distribution of nuclear phosphorylated SRC^416 (kinase activity) (SRC [2]): significant shift towards lower intensity levels
expression of characteristic myotube genes (myotube marker genes): does not decrease expression of queried characteristic myotube genes
FSHD cell death measured by retained % cell confluence [3]: dose-dependent rescue of FSHD cell death
DUX4 expression (DUX4; Genea049 hESC-SkM, 100 nM, four days of culture during myotube formation): decreased DUX4 expression
DUX4 expression, dose curve (DUX4; Genea049 hESC-SkM, six concentration points 10 nM-3 μM, four days): dose-dependent decreased DUX4 expression
IC50 (DUX4; Homo sapiens, Genea049 hESC-SkM dose curve, read-out: estimated IC50 value, DUX4-suppressive effect): ~100 nM
expression levels of SRC (mRNA) (SRC [4]): No significant difference
